Test results as given in US10105357B2, “Indication of antibiotic drugs for preparation of cancer inhibition pharmaceutical composition” (LAUNX BIOMEDICAL CO., LTD., priority 2014, dated 2018).
Read-outs that look alike come from different tables or passages of the source.

Columns and labels:
[1] = tested on: cancer cell lines; experiment: Cell viability analysis (WST-1) on cancer cell lines; assay type: cell-based, human; conditions: drug 10 μM, 72 hours, WST-1; Table 3
[2] = tested on: HI650 (Lung Adenocarcinoma); experiment: Cell viability analysis, lung cancer HI650; assay type: cell-based, human; conditions: Homo sapiens, NCI-H1650, 72 h
[3] = tested on: A549 (Lung Adenocarcinoma); experiment: Cell viability analysis, lung cancer A549; assay type: cell-based, human; conditions: Homo sapiens, A549, 72 h
[4] = tested on: AGS (Gastric Adenocarcinoma); experiment: Cell viability analysis, gastric cancer AGS; assay type: cell-based, human; conditions: Homo sapiens, 72 h
[5] = tested on: MKN-45 (Gastric Adenocarcinoma); experiment: Cell viability analysis, gastric cancer MKN-45; assay type: cell-based, human; conditions: Homo sapiens, MKN-45, 72 h
[6] = tested on: HepG2 (Hepatocellular Carcinoma); experiment: Cell viability analysis, hepatic cancer HepG2; assay type: cell-based, human; conditions: Homo sapiens, HepG2, 72 h
[7] = tested on: Hep3B (hepatocellular carcinoma); experiment: Cell viability analysis, hepatic cancer Hep3B; assay type: cell-based, human; conditions: Homo sapiens, Hep3B, 72 h, read-out: The results of antibiotic drug inhibiting cancer cell lines (cell viability analysis), Hep3B
[8] = tested on: LoVo (Colorectal Adenocarcinoma); experiment: Cell viability analysis, colon cancer LoVo; assay type: cell-based, human; conditions: Homo sapiens, LoVo, 72 h
[9] = tested on: A375 (Amelanotic Melanoma); experiment: Cell viability analysis, skin cancer A375; assay type: cell-based, human; conditions: Homo sapiens, A-375, 72 h
[10] = tested on: BCC (basal cell carcinoma); experiment: Cell viability analysis, skin cancer BCC; assay type: cell-based, human; conditions: Homo sapiens, 72 h, read-out: The results of antibiotic drug inhibiting cancer cell lines (cell viability analysis), BCC
[11] = tested on: HeLa (Cervix Adenocarcinoma); experiment: Cell viability analysis, cervical cancer HeLa; assay type: cell-based, human; conditions: Homo sapiens, HeLa, 72 h
[12] = tested on: C-33A (Cervical carcinoma); experiment: Cell viability analysis, cervical cancer C-33A; assay type: cell-based, human; conditions: Homo sapiens, C-33-A, 72 h, read-out: The results of antibiotic drug inhibiting cancer cell lines (cell viability analysis), C-33A
[13] = tested on: PC3 (p53−) (Prostate Adenocarcinoma); experiment: Cell viability analysis, prostate cancer PC3; assay type: cell-based, human; conditions: Homo sapiens, 72 h
[14] = tested on: T24; experiment: Cell viability analysis, bladder cancer T24; assay type: cell-based, human; conditions: Homo sapiens, T-24, 72 h, read-out: The results of antibiotic drug inhibiting cancer cell lines (cell viability analysis), T24
[15] = tested on: MCF7 (Mammary Gland, Adenocarcinoma); experiment: Cell viability analysis, breast cancer MCF7; assay type: cell-based, human; conditions: Homo sapiens, MCF7, 72 h
[16] = tested on: MDA-MB-231 (Mammary Gland, Adenocarcinoma); experiment: Cell viability analysis, breast cancer MDA-MB-231; assay type: cell-based, human; conditions: Homo sapiens, MDA-MB-231, 72 h, read-out: The results of antibiotic drug inhibiting cancer cell lines (cell viability analysis), MDA-MB231
[17] = tested on: BxPC-3; experiment: Cell viability analysis, pancreatic cancer BxPC-3; assay type: cell-based, human; conditions: Homo sapiens, BXPC-3, 72 h, read-out: The results of antibiotic drug inhibiting cancer cell lines (cell viability analysis), BxPC-3
[18] = tested on: AsPC-1; experiment: Cell viability analysis, pancreatic cancer AsPC-1; assay type: cell-based, human; conditions: Homo sapiens, ASPC1, 72 h, read-out: The results of antibiotic drug inhibiting cancer cell lines (cell viability analysis), AsPC-1
[19] = tested on: NIH: OVCAR-3; experiment: Cell viability analysis, ovarian cancer NIH: OVCAR-3; assay type: cell-based, human; conditions: Homo sapiens, OVCAR-3, 72 h, read-out: The results of antibiotic drug inhibiting cancer cell lines (cell viability analysis), NIH-OVCAR-3
[20] = tested on: TOV-21G; experiment: Cell viability analysis, ovarian cancer TOV-21G; assay type: cell-based, human; conditions: Homo sapiens, TOV21G, 72 h, read-out: The results of antibiotic drug inhibiting cancer cell lines (cell viability analysis), TOV-21G
[21] = tested on: SAS (Tongue squamous cell carcinoma); experiment: Cell viability analysis, tongue cancer SAS; assay type: cell-based, human; conditions: Homo sapiens, 72 h, read-out: The results of antibiotic drug inhibiting cancer cell lines (cell viability analysis), SAS
[22] = tested on: U-2OS; experiment: Cell viability analysis, osteosarcoma U-2OS; assay type: cell-based, human; conditions: Homo sapiens, U2OS, 72 h, read-out: The results of antibiotic drug inhibiting cancer cell lines (cell viability analysis), U2OS
[23] = tested on: 786-O (Renal adenocarcinoma); experiment: Cell viability analysis, renal cancer 786-O; assay type: cell-based, human; conditions: Homo sapiens, 786-0, 72 h, read-out: The results of antibiotic drug inhibiting cancer cell lines (cell viability analysis), 786-O
[24] = tested on: HL-60 (Acute Promyelocytic Leukemia); experiment: Cell viability analysis, leukemia HL-60; assay type: cell-based, human; conditions: Homo sapiens, HL-60, 72 h, read-out: cell viability (survival rate), HL-60, drug 10 μM, 72 hours, WST-1, OD450 nm
[25] = tested on: HCT116 (p53+) (Colorectal Carcinoma)
[26] = read-out: The results of antibiotic drug inhibiting cancer cell lines (cell viability analysis), H1650, H1650, repeated experiment
[27] = read-out: cell viability (survival rate), H1650, drug 10 μM, 72 hours, WST-1, OD450 nm
[28] = read-out: The results of antibiotic drug inhibiting cancer cell lines (cell viability analysis), A549, A549, repeated experiment
[29] = read-out: cell viability (survival rate), A549, drug 10 μM, 72 hours, WST-1, OD450 nm
[30] = read-out: The results of antibiotic drug inhibiting cancer cell lines (cell viability analysis), AGS, repeated experiment
[31] = read-out: cell viability (survival rate), AGS, drug 10 μM, 72 hours, WST-1, OD450 nm
[32] = read-out: The results of antibiotic drug inhibiting cancer cell lines (cell viability analysis), MKN-45, MKN-45, repeated experiment
[33] = read-out: cell viability (survival rate), MKN-45, drug 10 μM, 72 hours, WST-1, OD450 nm
[34] = read-out: The results of antibiotic drug inhibiting cancer cell lines (cell viability analysis), HepG2, HepG2, repeated experiment
[35] = read-out: cell viability (survival rate), HepG2, drug 10 μM, 72 hours, WST-1, OD450 nm
[36] = read-out: The results of antibiotic drug inhibiting cancer cell lines (cell viability analysis), LoVo, repeated experiment
[37] = read-out: cell viability (survival rate), LoVo, drug 10 μM, 72 hours, WST-1, OD450 nm
[38] = read-out: The results of antibiotic drug inhibiting cancer cell lines (cell viability analysis), A375, A375, repeated experiment
[39] = read-out: cell viability (survival rate), A375, drug 10 μM, 72 hours, WST-1, OD450 nm
[40] = read-out: The results of antibiotic drug inhibiting cancer cell lines (cell viability analysis), HeLa, repeated experiment
[41] = read-out: cell viability (survival rate), HeLa, drug 10 μM, 72 hours, WST-1, OD450 nm
[42] = read-out: The results of antibiotic drug inhibiting cancer cell lines (cell viability analysis), PC-3, PC-3, repeated experiment
[43] = read-out: cell viability (survival rate), PC3, drug 10 μM, 72 hours, WST-1, OD450 nm
[44] = read-out: The results of antibiotic drug inhibiting cancer cell lines (cell viability analysis), MCF-7, MCF-7, repeated experiment
[45] = read-out: cell viability (survival rate), MCF7, drug 10 μM, 72 hours, WST-1, OD450 nm

Compound: Cc1ncc([N+](=O)[O-])n1CCO [Metronidazole (Flagyl), Metronidazole]
- inhibition effect on different cancer cell lines [1]: significant inhibition effect
- viability at 10 µM [2, 26]: 87.2%
- viability at 10 µM [2, 27]: 94.9%
- viability at 10 µM [3, 28]: 97.7%
- viability at 10 µM [3, 29]: 36.5%
- viability at 10 µM [4, 30]: 113%
- viability at 10 µM [4, 31]: 90.5%
- viability at 10 µM [5, 32]: 108%
- viability at 10 µM [5, 33]: 57.7%
- viability at 10 µM [6, 34]: 94.1%
- viability at 10 µM [6, 35]: 105%
- viability at 10 µM [7]: 92.3%
- viability at 10 µM [8, 36]: 118%
- viability at 10 µM [8, 37]: 61.1%
- viability at 10 µM [9, 38]: 74.7%
- viability at 10 µM [9, 39]: 56.4%
- viability at 10 µM [10]: 68.2%
- viability at 10 µM [11, 40]: 75.3%
- viability at 10 µM [11, 41]: 90.7%
- viability at 10 µM [12]: 114%
- viability at 10 µM [13, 42]: 95.6%
- viability at 10 µM [13, 43]: 40.9%
- viability at 10 µM [14]: 93.8%
- viability at 10 µM [15, 44]: 77.3%
- viability at 10 µM [15, 45]: 43.8%
- viability at 10 µM [16]: 93.3%
- viability at 10 µM [17]: 83.6%
- viability at 10 µM [18]: 83.1%
- viability at 10 µM [19]: 110%
- viability at 10 µM [20]: 95.8%
- viability at 10 µM [21]: 112%
- viability at 10 µM [22]: 99.6%
- viability at 10 µM [23]: 92%
- viability at 10 µM [24]: 90.8%
- viability [25]: 98.9%

Compound: COc1cc(NC(C)CCCN)c2ncccc2c1 (stereo not shown) [Primaquine Diphosphate]
- inhibition effect on different cancer cell lines [1]: significant inhibition effect
- viability at 10 µM [2, 26]: 66.8%
- viability at 10 µM [2, 27]: 56.4%
- viability at 10 µM [3, 28]: 47.4%
- viability at 10 µM [3, 29]: 31.4%
- viability at 10 µM [4, 30]: 37.1%
- viability at 10 µM [4, 31]: 43.9%
- viability at 10 µM [5, 32]: 63.1%
- viability at 10 µM [5, 33]: 64.3%
- viability at 10 µM [6, 34]: 81%
- viability at 10 µM [6, 35]: 81.4%
- viability at 10 µM [7]: 115%
- viability at 10 µM [8, 36]: 81.2%
- viability at 10 µM [8, 37]: 72.6%
- viability at 10 µM [9, 38]: 38.7%
- viability at 10 µM [9, 39]: 44.6%
- viability at 10 µM [10]: 35.9%
- viability at 10 µM [11, 40]: 61.2%
- viability at 10 µM [11, 41]: 55%
- viability at 10 µM [12]: 96.8%
- viability at 10 µM [13, 42]: 65.7%
- viability at 10 µM [13, 43]: 60.3%
- viability at 10 µM [14]: 72.6%
- viability at 10 µM [15, 44]: 50.7%
- viability at 10 µM [15, 45]: 36.7%
- viability at 10 µM [16]: 65.4%
- viability at 10 µM [17]: 49.8%
- viability at 10 µM [18]: 66.5%
- viability at 10 µM [19]: 60.2%
- viability at 10 µM [20]: 54.8%
- viability at 10 µM [21]: 59.9%
- viability at 10 µM [22]: 59.6%
- viability at 10 µM [23]: 81.5%
- viability at 10 µM [24]: 34.1%
- viability [25]: 60.9%
